Test results from patent US20220162191A1, “SMALL MOLECULE MODULATORS OF IL-17” (LEO PHARMA A/S, priority 2019, published 2022).

Target: T1, human IL-17AA (Homo sapiens, UniProt Q16552)
T1 construct: host or cells: HEK (human embryonic kidney) cells
T1 sequence (Q16552 24-155) 1: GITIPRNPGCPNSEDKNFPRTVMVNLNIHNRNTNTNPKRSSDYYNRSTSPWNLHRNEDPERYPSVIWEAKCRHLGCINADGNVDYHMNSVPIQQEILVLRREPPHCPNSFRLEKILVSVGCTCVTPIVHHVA
T1 sequence (Q16552 24-155) 2: T1 sequence (Q16552 24-155) 1
Assay: IL-8 release assay in human epithelial keratinocytes adult (HEKa)
Format: cell-based
Settings: 3 ng/ml human IL-17AA + 10 ng/ml human TNFalpha, 68-72 h, IL-8 by HTRF, read-out: Rel EC50 L-8 release assay
Procedure, shortened: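 Adult human keratinocytes in Epilife with HKGS minus hydrocortisone, treated with compound then stimulated with final 3 ng/ml HEK-derived human IL-17AA plus 10 ng/ml TNF-alpha for 68–72 h at 37 °C; TNF-alpha alone defines 100% inhibition. Secreted IL-8 by HTRF; relative IC50 and Emax from four-parameter fits.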

Row | EC50 | Compound
1 | 100 to 1000 nM | Cc1ncn(C)c1-c1ccc(NC(=O)[C@H](Cc2cc(-c3ccc(=O)n(C(C)C)c3)ccc2Cl)NC(=O)OC2CC2)cc1 [Example 201, cyclopropyl N-[(1S)-1-[[2-chloro-5-(1-isopropyl-6-oxo-3-pyridyl)phenyl]methyl]-2-[4-(3,5-dimethylimidazol-4-yl)anilino]-2-oxo-ethyl]carbamate]
2 | > 1000 nM | CC(C)n1cc(-c2ccc(Cl)c(CC(NC(=O)OC(C)(C)C)C(=O)Nc3ccc(-c4cncn4C)c(Cl)c3)c2)ccc1=O (stereo not drawn) [Example 101, tert-butyl N-[1-[[2-chloro-5-(1-isopropyl-6-oxo-3-pyridyl)phenyl]methyl]-2-[3-chloro-4-(3-methylimidazol-4-yl)anilino]-2-oxo-ethyl]carbamate]
3 | 100 to 1000 nM | CC(C)n1cc(-c2ccc3c(c2)[C@@H]([C@@H](NC(=O)OC(C)(C)C)C(=O)Nc2ccc(-c4cncn4C)cc2)CCC3)ccc1=O [Example 45, tert-butyl N-[(1R)-1-[(1S)-7-(1-isopropyl-6-oxo-3-pyridyl)tetralin-1-yl]-2-[4-(3-methylimidazol-4-yl)anilino]-2-oxo-ethyl]carbamate]
4 | < 100 nM | Cc1n[nH]c(C)c1-c1ccc(NC(=O)[C@@H](NC(=O)C2(F)CC2)[C@@H]2CCCc3ccc(-c4ccnc(N5C[C@H]6C[C@@H]5CO6)c4)cc32)cc1 [Example 387, N-[(1S)-2-[4-(3,5-dimethyl-1H-pyrazol-4-yl)anilino]-1-[(1R)-7-[2-[(1R,4R)-2-oxa-5-azabicyclo[2.2.1]heptan-5-yl]-4-pyridyl]tetralin-1-yl]-2-oxo-ethyl]-1-fluoro-cyclopropanecarboxamide]
5 | 100 to 1000 nM | Cc1nn(C)cc1-c1ccc(NC(=O)[C@@H](NC(=O)C2(F)CC2)[C@@H]2CCc3ccc(-c4ccnc(N5C[C@@H]6C[C@H]5CO6)c4)cc32)cc1 [Example 372, N-[(1S)-2-[4-(1,3-dimethylpyrazol-4-yl)anilino]-1-[(1R)-6-[2-[(1S,4S)-2-oxa-5-azabicyclo[2.2.1]heptan-5-yl]-4-pyridyl]indan-1-yl]-2-oxo-ethyl]-1-fluoro-cyclopropanecarboxamide]
6 | 100 to 1000 nM | Cc1n[nH]c(C)c1-c1ccc(NC(=O)[C@@H](NC(=O)c2ccnn2C)[C@@H]2CCc3ccc(-c4cnn(C(C)(C)CN)c4)cc32)cc1 [Example 22, N-[(1S)-1-[(1R)-6-[1-(2-amino-1,1-dimethyl-ethyl)pyrazol-4-yl]indan-1-yl]-2-[4-(3,5-dimethyl-1H-pyrazol-4-yl)anilino]-2-oxo-ethyl]-2-methyl-pyrazole-3-carboxamide]
7 | > 1000 nM | Cc1nocc1C(=O)NC(Cc1cc(-c2ccc(=O)n(C3CC3)c2)ccc1Cl)C(=O)Nc1ccc(-c2nncn2C)cc1 (stereo not drawn) [Example 63, N-[1-[[2-chloro-5-(1-cyclopropyl-6-oxo-3-pyridyl)phenyl]methyl]-2-[4-(4-methyl-1,2,4-triazol-3-yl)anilino]-2-oxo-ethyl]-3-methyl-isoxazole-4-carboxamide]
8 | 100 to 1000 nM | Cc1n[nH]c(C)c1-c1ccc(NC(=O)[C@@H](NC(=O)C2(F)CC2)[C@@H]2CCc3ccc(-c4cnnc(C5CC5)c4)cc32)cc1 [Example 381, N-[(1S)-1-[(1R)-6-(6-cyclopropylpyridazin-4-yl)indan-1-yl]-2-[4-(3,5-dimethyl-1H-pyrazol-4-yl)anilino]-2-oxo-ethyl]-1-fluoro-cyclopropanecarboxamide]
9 | > 1000 nM | CC(C)n1cc(-c2cccc(C(c3ccccc3)C(NC(=O)OC3CC3)C(=O)Nc3ccc(-c4cncn4C)cc3)c2)ccc1=O (single isomer, unassigned; diastereomer 4) [Example 241, cyclopropyl N-[1-[[3-(1-isopropyl-6-oxo-3-pyridyl)phenyl]-phenyl-methyl]-2-[4-(3-methylimidazol-4-yl)anilino]-2-oxo-ethyl]carbamate (Diastereomer 4)]
